{"source": "PubChem BioAssay AID1259411", "about": "(Chemical Carcinogenesis Research Information System (CCRIS), 2018)", "system": "rodent carcinogenicity bioassays, tumor incidence", "experiment": "CCRIS carcinogenicity studies", "procedure,_shortened": "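Archive of carcinogenicity, mutagenicity, tumor promotion and tumor inhibition results drawn from journals, NCI reports and other sources, expert-reviewed; covers 1985-2011 and is no longer updated.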", "note": "Active and inactive are the calls of the source. No rule for the calls is given here.", "data": [{"smiles": "CC(=O)N(O)c1ccc2c(c1)Cc1ccccc1-2", "values": [{"measurement": "carcinogen call", "setting": "Species: GUINEA PIG, Strain/Sex: FEMALE, Route: INTRAPERITONEAL, Dose: 1.5 G/100 G SUSPENDED IN SALINE-GUM ACACIA 3/WK FOR 27 MO, Tumor Site: Type of Lesion: INJECTION SITE: SARCOMA", "result": "active; positive"}, {"measurement": "carcinogen call", "setting": "Species: GUINEA PIG, Strain/Sex: MALE, Route: ORAL, Dose: 0.024-0.064% IN DIET (AMOUNT VARIED BECAUSE OF TOXICITY), Tumor Site: Type of Lesion: INTESTINES (SMALL): ADENOCARCINOMA", "result": "active; positive"}, {"measurement": "carcinogen call", "setting": "Species: HAMSTER, Strain/Sex: MALE, Route: INTRAPERITONEAL, Dose: 1.5 G/100 G SUSPENDED IN SALINE-GUM ACACIA 3/WK FOR 6-8 MO, Tumor Site: Type of Lesion: PERITONEAL CAVITY: FIBROSARCOMA", "result": "active; positive"}, {"measurement": "carcinogen call", "setting": "Species: HAMSTER, Strain/Sex: MALE, Route: ORAL, Dose: 0.032% IN DIET AS 5-10 G OF GLUCOSE TRITURATE/KG DIET FOR 7.5 MO, Tumor Site: Type of Lesion: FORESTOMACH: PAPILLOMA, SQUAMOUS CELL CARCINOMA, LIVER: BENIGN TUMOR", "result": "active; positive"}, {"measurement": "carcinogen call", "setting": "Species: MOUSE, Strain/Sex: B6C3F1/MALE, Route: INTRAPERITONEAL, Dose: 0, 0.025, 0.08, 0.23 UMOL/G BW IN 5 µL/G BW OF 80% DMSO ONCE AT 12 D OF AGE (STUDY DURATION: 9 MO), Dose: 0, 0.025, 0.08, 0.23 UMOL/G BW IN 5 µL/G BW OF 80% DMSO ONCE AT 12 D OF AGE (STUDY DURATION: 9 MO), Tumor Site: Type of Lesion: LIVER: HEPATOMA", "result": "active; positive"}, {"measurement": "carcinogen call", "setting": "Species: MOUSE, Strain/Sex: B6C3F2 (BRACHYMORPHOIC)/MALE, Route: INTRAPERITONEAL, Dose: 0, 0.025, 0.08, 0.23 UMOL/G BW IN 5 µL/G BW OF 80% DMSO ONCE AT 12 D OF AGE (STUDY DURATION: 9 MO), Dose: 0, 0.025, 0.08, 0.23 UMOL/G BW IN 5 µL/G BW OF 80% DMSO ONCE AT 12 D OF AGE (STUDY DURATION: 9 MO), Tumor Site: Type of Lesion: LIVER: HEPATOMA", "result": "active; positive"}, {"measurement": "carcinogen call", "setting": "Species: RABBIT, Strain/Sex: NZW/MALE,FEMALE, Route: INTRAPERITONEAL, Dose: 32.3 MG/KG IN 3 ML/KG SALINE 3/WK FOR 40 WK, Tumor Site: Type of Lesion: PERITONEAL CAVITY: SARCOMA", "result": "active; positive"}, {"measurement": "carcinogen call", "setting": "Species: RAT, Strain/Sex: CRBL/FEMALE, Route: INTRAPERITONEAL, Dose: 4.O MG/100 G 3/WK FOR 2 WK THEN 3.0 MG/100 G 3/WK FOR 2 WK, Tumor Site: Type of Lesion: MAMMARY GLAND: BENIGN TUMOR, NEOPLASM", "result": "active; positive"}, {"measurement": "carcinogen call", "setting": "Species: RAT, Strain/Sex: F344/FEMALE, Route: INTRAPERITONEAL, Dose: 0.10 MMOL/RAT (TOTAL DOSE), Tumor Site: Type of Lesion: LIVER: CHOLANGIOMA, CARCINOMA", "result": "active; positive"}, {"measurement": "carcinogen call", "setting": "Species: RAT, Strain/Sex: F344/MALE, Route: ORAL, Dose: 160 UG/G IN DIET FOR 12 WK, Tumor Site: Type of Lesion: LIVER: HEPATOMA", "result": "active; positive"}, {"measurement": "carcinogen call", "setting": "Species: RAT, Strain/Sex: HOLTZMAN/FEMALE, Route: INTRAPERITONEAL, Dose: 2-AAF EQUIV OF 2.5 MG SUSPENDED IN SALINE-GUM ACACIA 3/WK FOR 3 WK THEN 3.5 MG FOR 2 WK THEN 3.0 MG FOR 9 WK, Tumor Site: Type of Lesion: MAMMARY GLAND: NEOPLASM, PERITONEAL CAVITY: SARCOMA", "result": "active; positive"}, {"measurement": "carcinogen call", "setting": "Species: RAT, Strain/Sex: HOLTZMAN/FEMALE, Route: INTRAPERITONEAL, Dose: 2-AAF EQUIV OF 4 MG IN 0.4 ML SALINE-GUM ACACIA 3/WK FOR 4 WK, Tumor Site: Type of Lesion: MAMMARY GLAND: NEOPLASM", "result": "active; positive"}, {"measurement": "carcinogen call", "setting": "Species: RAT, Strain/Sex: HOLTZMAN/FEMALE, Route: ORAL, Dose: 0.032% IN GRAIN DIET FOR 4 MO, Tumor Site: Type of Lesion: MAMMARY GLAND: NEOPLASM, FORESTOMACH: PAPILLOMA, CARCINOMA, EAR (DUCT): NEOPLASM, INTESTINES (SMALL), Tumor Site: Type of Lesion: MAMMARY GLAND: NEOPLASM, FORESTOMACH: PAPILLOMA, CARCINOMA, EAR (DUCT): NEOPLASM, INTESTINES (SMALL)", "result": "active; positive"}, {"measurement": "carcinogen call", "setting": "Species: RAT, Strain/Sex: HOLTZMAN/MALE, Route: INTRAPERITONEAL, Dose: 2-AAF EQUIV OF 2.5 MG SUSPENDED IN SALINE-GUM ACACIA 3/WK FOR 3 WK THEN 3.5 MG 3/WK FOR 3 WK THEN 3.0 MG 3/WK FOR 9 WK, Tumor Site: Type of Lesion: EAR (DUCT): NEOPLASM, PERITONEAL CAVITY: SARCOMA, INTESTINES (SMALL): NEOPLASM, Tumor Site: Type of Lesion: EAR (DUCT): NEOPLASM, PERITONEAL CAVITY: SARCOMA, INTESTINES (SMALL): NEOPLASM", "result": "active; positive"}, {"measurement": "carcinogen call", "setting": "Species: RAT, Strain/Sex: HOLTZMAN/MALE, Route: ORAL, Dose: 0.032% IN GRAIN DIET FOR 3 MO, Tumor Site: Type of Lesion: LIVER: NEOPLASM, FORESTOMACH: PAPILLOMA, CARCINOMA", "result": "active; positive"}, {"measurement": "carcinogen call", "setting": "Species: RAT, Strain/Sex: HOLTZMAN/MALE, Route: SUBCUTANEOUS, Dose: 3.2 MG IN 0.2 ML TRICAPRYLIN 2/WK FOR 4 WK, Tumor Site: Type of Lesion: INJECTION SITE: SARCOMA, EAR (DUCT): CARCINOMA", "result": "active; positive"}, {"measurement": "carcinogen call", "setting": "Species: RAT, Strain/Sex: NIHBL/MALE,FEMALE, Route: ORAL, Dose: 80 UG/G IN DIET FOR 64 WK, Tumor Site: Type of Lesion: LIVER: HEPATOMA, CHOLANGIOMA", "result": "active; positive"}, {"measurement": "carcinogen call", "setting": "Species: RAT, Strain/Sex: SPRAGUE-DAWLEY/FEMALE, Route: INTRAPERITONEAL, Dose: 0.10, 0.17 MMOL/RAT (TOTAL DOSE), Tumor Site: Type of Lesion: MAMMARY GLAND: ADENOCARCINOMA", "result": "active; positive"}, {"measurement": "carcinogen call", "setting": "Species: RAT, Strain/Sex: STRAIN-CD/FEMALE, Route: INTRAPERITONEAL, Dose: 0, 67 UMOL/KG BW IN DMSO 3/WK FOR 4 WK (STUDY DURATION: 61 WK), Tumor Site: Type of Lesion: MAMMARY GLAND: ADENOCARCINOMA, HEMATOPOIETIC SYSTEM: LEUKEMIA, LYMPHOMA", "result": "active; positive"}, {"measurement": "carcinogen call", "setting": "Species: RAT, Strain/Sex: STRAIN-CD/FEMALE, Route: ORAL, Dose: 0.025% IN GRAIN DIET FOR 4 MO, Tumor Site: Type of Lesion: MAMMARY GLAND: CARCINOMA, LIVER: BENIGN TUMOR, NEOPLASM, EAR (DUCT): CARCINOMA, Tumor Site: Type of Lesion: MAMMARY GLAND: CARCINOMA, LIVER: BENIGN TUMOR, NEOPLASM, EAR (DUCT): CARCINOMA", "result": "active; positive"}]}, {"smiles": "OCc1ccccc1", "values": [{"measurement": "carcinogen call", "setting": "Species: MOUSE, Strain/Sex: B6C3F1/F, Route: GAVAGE, Dose: 0, 100, 200 MG/KG IN CORN OIL 5D/WK FOR 103 WK (STUDY DURATION: 106 WK), Dose: 0, 100, 200 MG/KG IN CORN OIL 5D/WK FOR 103 WK (STUDY DURATION: 106 WK)", "result": "inactive; negative"}, {"measurement": "carcinogen call", "setting": "Species: MOUSE, Strain/Sex: B6C3F1/M, Route: GAVAGE, Dose: 0, 100, 200 MG/KG IN CORN OIL 5D/WK FOR 103 WK (STUDY DURATION: 106 WK), Dose: 0, 100, 200 MG/KG IN CORN OIL 5D/WK FOR 103 WK (STUDY DURATION: 106 WK)", "result": "inactive; negative"}, {"measurement": "carcinogen call", "setting": "Species: RAT, Strain/Sex: F344/F, Route: GAVAGE, Dose: 0, 200, 400 MG/KG IN CORN OIL 5D/WK FOR 103 WK (STUDY DURATION: 105 WK), Dose: 0, 200, 400 MG/KG IN CORN OIL 5D/WK FOR 103 WK (STUDY DURATION: 105 WK)", "result": "inactive; negative"}, {"measurement": "carcinogen call", "setting": "Species: RAT, Strain/Sex: F344/M, Route: GAVAGE, Dose: 0, 200, 400 MG/KG IN CORN OIL 5D/WK FOR 103 WK (STUDY DURATION: 105 WK), Dose: 0, 200, 400 MG/KG IN CORN OIL 5D/WK FOR 103 WK (STUDY DURATION: 105 WK)", "result": "inactive; negative"}]}]}
